Laboratory results published in patent US5496452A, “Substrate regenerating biosensor” (priority 1990, dated 1996).

Columns and labels:
[1] = target: T1, horseradish peroxidase (HRP) (Armoracia rusticana, UniProt P00433); assay: Ferrocenes as mediators for HRP reduction: ring current at rotating ring disc electrode; assay type: biochemical; conditions: ferrocene derivative 0.5 mM, HRP 2.5 μM, disc potential -1.2V; for Relative Current: relative to hydroxymethyl ferrocene = 100%
T1 construct: purchased Biozyme
T1 sequence (P00433 31-353): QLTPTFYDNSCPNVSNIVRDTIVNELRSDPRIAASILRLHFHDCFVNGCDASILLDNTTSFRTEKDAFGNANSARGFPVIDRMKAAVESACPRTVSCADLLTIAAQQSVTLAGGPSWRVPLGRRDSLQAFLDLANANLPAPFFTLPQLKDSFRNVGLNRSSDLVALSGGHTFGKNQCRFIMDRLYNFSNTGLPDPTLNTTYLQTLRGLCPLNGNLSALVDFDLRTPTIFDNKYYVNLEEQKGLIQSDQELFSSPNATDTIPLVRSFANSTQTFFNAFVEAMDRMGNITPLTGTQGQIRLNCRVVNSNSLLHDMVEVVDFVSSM
Text: The electrocatalytic activity of HRP as shown in FIGS. 1 and 2 was typically assessed by immersing the rotating ring disc electrode in a buffered solution containing peroxidase and hydroxymethyl ferrocene mediator. The electrode was rotated at a constant speed to control the transport of material to the disc electrode and subsequently out to the ring. A cathodic potential sweep was applied to the glassy carbon disc at 0.1V/S. The platinum ring was held at constant potential of 0V and the current at the ring as a function of the disc potential was measured. Before determination of the peroxidase generated ring current, following electrode immersion, the ring current (background current) was allowed to stabilize (about 5 min). […] The catalytic current was defined as the net reductive current occurring at a disc potential of 0 volts.
The actual profile of the reduction current seen at the ring electrode is a function of the concentrations of the enzyme and substrates, as well as the rotation rate of the electrode, the sweep rate at the disc and the potential of the ring. The magnitude of this current also depends on the fraction of enzymatically generated ferricinium (oxidized ferrocene) which actually reaches the ring.
(§1) Several ferrocenes shown in Table 1 were tested for their ability to act as mediators for HRP reduction.

[2] = Redox potential (Ep1/2) of ferrocene derivatives; assay type: physicochemical; conditions: ferrocene derivative 0.5 mM; potentials quoted vs SCE
Text: A four electrode analogue potentiostat (not shown) which is optionally computer controlled is used to control the potentials at the working electrodes (2) and (3). The disc electrode (2) is connected to a triangular wave generator (not shown) for potential sweeps and the ring electrode (3) is connected to a constant DC voltage source. The electrode rotation is controlled by a Ursar Scientific rotator. All potentials are quoted with respect to a saturated calomel electrode (SCE) with a 1 cm^2 platinum gauze serving as the counter electrode.
as §1

| SMILES | Current (ring current) [1] | Relative Current [1] | Ep1/2 (redox potential) [2] |
| --- | --- | --- | --- |
| OC[c-]1cccc1.[Fe+2].c1cc[cH-]c1 [Hydroxymethyl Ferrocene] | 3.8 mA | 100% | 210 mv |
| CN(C)Cc1ccc[cH-]1.[Fe+2].c1cc[cH-]c1 [Dimethylaminomethyl Ferrocene] | 0.22 mA | 6% | 490 mv |
| O=C([O-])[c-]1cccc1.[Fe+2].c1cc[cH-]c1 [Monocarboxylate Ferrocene] | 0.64 mA | 17% | 295 mv |
| O=C([O-])[c-]1cccc1.O=C([O-])[c-]1cccc1.[Fe+2] [1,1' Dicarboxylate Ferrocene] | 0.10 mA | 3% | 420 mv |
